Measurements taken from ChEMBL document CHEMBL5365540, “Structure-activity relationship studies and biological properties evaluation of peptidic NRP-1 ligands: Investigation of N-terminal cysteine importance” (Bioorg Med Chem, 2023).
Activity calls are given as the source filed them. The rule behind the calls is not given here. *1 amine or outer side, *2 acyl side, *3 side chain or, on linkers, in order; H or OH if unused. Where a SMILES comes first, the peptide text is derived from it. Side-chain parts run from the residue outwards. [ ]: non-standard residue; d: D form. The star is where a group is joined. ξ: configuration not given here. Biotin = O=C1N[C@H]2[C@H](CS[C@H]2CCCCC(=O)*)N1; Oic(3aξ,7aξ) = O=C(O)[C@@H]1CC2CCCCC2N1; X1 = O=C([C@H](CCCS)N[*:1])[*:2]; hArg = N=C(N)NCCCC[C@H](N)C(=O)O; hCys = N[C@@H](CCS)C(=O)O; X2 = N[C@@H](CCCS)C(=O)*; Aun = NCCCCCCCCCCC(=O)O; Dab = NCC[C@H](N)C(=O)O; Dap = NC[C@H](N)C(=O)O; X3 = CSC[C@H](N)C(=O)*; ξK = NCCCCC(N)C(=O)O; Mpa = O=C(O)CCS

Experiments:
VEGA-NRP1 = VEGA-NRP1 (Homo sapiens, UniProt O14786); assay: Inhibition of human biotinylated-VEGFA165 binding to recombinant human NRP-1 measured after 2 hrs by chemiluminescent based ELISA; assay type: protein assay; conditions: read-out: IC50
Chain of VEGA-NRP1 (P15692 whole entry): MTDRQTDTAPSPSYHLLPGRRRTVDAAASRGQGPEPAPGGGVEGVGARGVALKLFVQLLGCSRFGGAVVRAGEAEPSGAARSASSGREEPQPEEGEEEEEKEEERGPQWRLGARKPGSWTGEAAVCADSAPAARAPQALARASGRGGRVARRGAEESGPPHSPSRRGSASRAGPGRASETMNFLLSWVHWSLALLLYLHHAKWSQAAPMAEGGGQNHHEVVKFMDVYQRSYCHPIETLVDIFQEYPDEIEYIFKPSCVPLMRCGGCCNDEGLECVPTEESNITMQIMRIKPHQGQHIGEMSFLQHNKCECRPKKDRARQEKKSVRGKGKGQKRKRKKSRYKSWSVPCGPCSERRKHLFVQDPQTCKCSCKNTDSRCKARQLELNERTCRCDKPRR
Chain of VEGA-NRP1 (O14786 whole entry): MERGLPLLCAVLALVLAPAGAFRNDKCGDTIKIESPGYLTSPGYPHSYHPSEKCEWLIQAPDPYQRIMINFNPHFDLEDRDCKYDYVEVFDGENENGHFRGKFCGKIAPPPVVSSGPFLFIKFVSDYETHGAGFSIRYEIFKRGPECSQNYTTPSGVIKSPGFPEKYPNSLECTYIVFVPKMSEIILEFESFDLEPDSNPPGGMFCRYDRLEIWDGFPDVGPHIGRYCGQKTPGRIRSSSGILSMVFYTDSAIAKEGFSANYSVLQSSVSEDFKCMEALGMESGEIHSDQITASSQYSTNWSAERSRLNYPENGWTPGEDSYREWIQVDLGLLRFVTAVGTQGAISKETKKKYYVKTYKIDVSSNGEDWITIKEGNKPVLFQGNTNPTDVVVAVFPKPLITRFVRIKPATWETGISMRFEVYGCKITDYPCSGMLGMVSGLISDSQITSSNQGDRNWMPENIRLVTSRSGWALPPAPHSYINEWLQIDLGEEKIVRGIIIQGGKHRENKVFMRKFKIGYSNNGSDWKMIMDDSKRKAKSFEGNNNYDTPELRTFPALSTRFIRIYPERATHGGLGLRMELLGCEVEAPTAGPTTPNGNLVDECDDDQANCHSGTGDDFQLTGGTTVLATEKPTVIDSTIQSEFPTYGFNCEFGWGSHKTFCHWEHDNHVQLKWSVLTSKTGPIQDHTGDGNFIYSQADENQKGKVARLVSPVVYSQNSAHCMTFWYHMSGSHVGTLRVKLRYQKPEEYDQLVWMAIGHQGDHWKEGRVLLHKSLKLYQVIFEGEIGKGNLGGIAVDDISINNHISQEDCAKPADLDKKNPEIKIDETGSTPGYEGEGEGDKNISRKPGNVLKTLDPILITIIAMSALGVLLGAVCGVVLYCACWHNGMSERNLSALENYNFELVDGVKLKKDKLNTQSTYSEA

[1] = Half-life in human serum by LC-SWATH-MS analysis; assay type: ADME, cell-free
VEGA-NRP1 (Homo sapiens) = VEGA-NRP1 (Homo sapiens) (UniProt P15692+O14786); assay: Inhibition of biotinylated-VEGFA165 (unknown origin) binding to C-terminal 6-His tagged human NRP-1 (Phe22 to Lys644 residues) expressed in mouse NS0 cells at 100 uM measured after 2 hrs by chemiluminescence assay relative to control; assay type: cell-based
Chain of VEGA-NRP1 (Homo sapiens) (O14786 22-923 partner limits assumed): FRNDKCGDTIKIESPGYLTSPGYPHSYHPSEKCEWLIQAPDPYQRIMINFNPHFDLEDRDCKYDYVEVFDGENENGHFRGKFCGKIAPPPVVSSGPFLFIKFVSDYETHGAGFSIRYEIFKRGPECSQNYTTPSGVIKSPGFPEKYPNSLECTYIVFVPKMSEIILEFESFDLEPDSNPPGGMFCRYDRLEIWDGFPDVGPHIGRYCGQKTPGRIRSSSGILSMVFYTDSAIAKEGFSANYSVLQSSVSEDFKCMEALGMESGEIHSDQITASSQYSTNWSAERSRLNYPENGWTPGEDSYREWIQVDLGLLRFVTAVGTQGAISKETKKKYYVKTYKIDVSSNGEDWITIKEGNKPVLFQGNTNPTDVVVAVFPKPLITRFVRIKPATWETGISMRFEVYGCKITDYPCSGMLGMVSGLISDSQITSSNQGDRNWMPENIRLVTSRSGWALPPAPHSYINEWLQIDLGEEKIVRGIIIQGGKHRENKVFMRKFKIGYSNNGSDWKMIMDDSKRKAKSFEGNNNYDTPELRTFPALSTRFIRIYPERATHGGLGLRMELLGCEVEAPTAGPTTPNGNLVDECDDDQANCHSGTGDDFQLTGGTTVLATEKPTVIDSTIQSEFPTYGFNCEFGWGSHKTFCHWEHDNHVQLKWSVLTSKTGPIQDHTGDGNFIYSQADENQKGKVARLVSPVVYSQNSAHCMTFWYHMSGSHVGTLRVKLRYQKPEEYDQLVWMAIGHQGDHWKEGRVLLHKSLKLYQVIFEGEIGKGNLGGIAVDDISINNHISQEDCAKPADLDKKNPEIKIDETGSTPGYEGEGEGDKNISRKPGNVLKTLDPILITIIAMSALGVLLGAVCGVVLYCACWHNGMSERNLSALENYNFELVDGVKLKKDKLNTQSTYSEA
Chain of VEGA-NRP1 (Homo sapiens) (P15692 whole entry): as the sequence (P15692 whole entry) above

[2] = target: Neuropilin-1 (Homo sapiens) (UniProt O14786); assay: Binding affinity to NRP-1 in human MDA-MB-231 cells at 12.5 to 100 ug/ml measured after 15 mins by FITC-streptavidin staining based flow cytometry analysis; assay type: cell-based; conditions: dose 12.5-100 µg/ml
Chain of Neuropilin-1 (Homo sapiens) (O14786 whole entry): as the sequence (O14786 whole entry) above

[3] = target: Neuropilin-1 (Homo sapiens) (UniProt O14786); assay: Binding affinity to NRP-1 in human MDA-MB-435 cells at 12.5 to 100 ug/ml measured after 15 mins by FITC-streptavidin staining based flow cytometry analysis; assay type: cell-based; conditions: dose 12.5-100 µg/ml
Cell membrane [4] = assay: Binding affinity to human MDA-MB-231 cell membrane at 59 uM preincubated for 15 mins at 4 degC followed by compound washout and further incubated for 5 mins with subsequent addition of compound at 37 degC by FITC-streptavidin staining based flow cytometry analysis; assay type: subcellular; conditions: time 20.0 min
MDA-MB-231 [5] = assay: Increase in NRP-1 expression in human MDA-MB-231 cell membrane at 59 uM preincubated for 15 mins at 4 degC followed by compound washout and further incubated for 5 mins with subsequent addition of compound at 37 degC by FITC-streptavidin staining based flow cytometry analysis; assay type: functional; conditions: time 20.0 min
MDA-MB-231 [6] = assay: Increase in NRP-1 expression in human MDA-MB-231 cell membrane at 59 uM preincubated for 15 mins at 4 degC followed by compound washout and further incubated for 60 mins with subsequent addition of compound at 37 degC by FITC-streptavidin staining based flow cytometry analysis; assay type: functional; conditions: time 75.0 min
MDA-MB-231 [7] = assay: Increase in NRP-1 expression in human MDA-MB-231 cell membrane at 5.9 uM preincubated for 15 mins at 4 degC followed by compound washout and further incubated for 60 mins with subsequent addition of compound at 37 degC by FITC-streptavidin staining based flow cytometry analysis; assay type: functional; conditions: time 75.0 min
Cell membrane [8] = assay: Binding affinity to human MDA-MB-231 cell membrane at 59 uM measured after 15 mins at 4 degC by Alexa Fluor 594-streptavidin staining based fluorescence microscopy; assay type: subcellular
Cell membrane [9] = assay: Binding affinity to human MDA-MB-231 cell membrane at 59 uM preincubated for 15 mins at 4 degC followed by compound washout and further incubated for 5 mins with subsequent addition of compound at 37 degC by Alexa Fluor 594-streptavidin staining based fluorescence microscopy; assay type: subcellular; conditions: time 20.0 min

`N=C(N)NCCCC[C@H](NC(=O)[C@@H](N)CN)C(=O)NCCCC[C@H](N)C(=O)N[C@@H](CCN)C(=O)N1C2CCCCC2C[C@H]1C(=O)N[C@@H](CCCNC(=N)N)C(=O)O` (stereo partly drawn) (H-K([hArg-Dap])[Dab][Oic(3aξ,7aξ)]R-OH) gave an IC50 (VEGA-NRP1) of 0.33 µM.
Work on `N=C(N)NCCCC[C@H](N)C(=O)NCCCC[C@H](NC(=O)[C@@H](N)CN)C(=O)N[C@@H](CCN)C(=O)N1C2CCCCC2C[C@H]1C(=O)N[C@@H](CCCNC(=N)N)C(=O)O` (stereo partly drawn) (H-[Dap]K(hArg)[Dab][Oic(3aξ,7aξ)]R-OH) yielded an IC50 (VEGA-NRP1) of 0.44 µM.
Compound `CC[C@H](N)C(=O)N[C@@H](CCCCNC(=N)N)C(=O)NCCCC[C@H](N)C(=O)N[C@@H](CCN)C(=O)N1C2CCCCC2C[C@H]1C(=O)N[C@@H](CCCNC(=N)N)C(=O)O` (stereo partly drawn) (HELM PEPTIDE1{K.[Dab].[O=C([C@@H]1CC2CCCCC2N1[*:1])[*:2]].R}|PEPTIDE2{[Abu].[N=C(N)NCCCC[C@H](N[*:1])C(=O)[*:2]]}$PEPTIDE1,PEPTIDE2,1:R3-2:R2$$$V2.0) has an IC50 (VEGA-NRP1) of 2.48 µM.
Compound `N=C(N)NCCCC[C@H](N)C(=O)NCCCC[C@H](NC(=O)[C@@H](N)CCCS)C(=O)N[C@@H](CCN)C(=O)N1C2CCCCC2C[C@H]1C(=O)N[C@@H](CCCNC(=N)N)C(=O)O` (stereo partly drawn) (H-[X1]K(hArg)[Dab][Oic(3aξ,7aξ)]R-OH) has an IC50 (VEGA-NRP1) of 0.89 µM.
For `CC[C@H](N)C(=O)N[C@@H](CCCCNC(=O)[C@@H](N)CCCCNC(=N)N)C(=O)N[C@@H](CCN)C(=O)N1C2CCCCC2C[C@H]1C(=O)N[C@@H](CCCNC(=N)N)C(=O)O` (stereo partly drawn) (HELM PEPTIDE1{[Abu].K.[Dab].[O=C([C@@H]1CC2CCCCC2N1[*:1])[*:2]].R}|PEPTIDE2{[N=C(N)NCCCC[C@H](N)C(=O)[*:2]]}$PEPTIDE1,PEPTIDE2,2:R3-1:R2$$$V2.0), the IC50 (VEGA-NRP1) was 2.41 µM and the half-life [1] was 2 h.
`CSC[C@H](N)C(=O)N[C@@H](CCCCNC(=N)N)C(=O)NCCCC[C@H](N)C(=O)N[C@@H](CCN)C(=O)N1C2CCCCC2C[C@H]1C(=O)N[C@@H](CCCNC(=N)N)C(=O)O` (stereo partly drawn) (H-K([hArg-X3])[Dab][Oic(3aξ,7aξ)]R-OH) gave an IC50 (VEGA-NRP1) of 2.82 µM.
With `C[C@@H](O)[C@H](NC(=O)[C@H](CCCNC(=N)N)NC(=O)[C@@H](N)CCC(=O)O)C(=O)N[C@@H](CS)C(=O)N[C@@H](CCCNC(=N)N)C(=O)N[C@@H](CS)C(=O)N[C@@H](CC(=O)O)C(=O)N[C@@H](CCCCN)C(=O)N1CCC[C@H]1C(=O)N[C@@H](CCCNC(=N)N)C(=O)N[C@@H](CCCNC(=N)N)C(=O)O` (H-ERTCRCDKPRR-OH) the inhibition (VEGA-NRP1 (Homo sapiens)) was 96%.
With `N=C(N)NCCCC[C@H](N)C(=O)NCCCC[C@H](NC(=O)[C@@H](N)CO)C(=O)N[C@@H](CCN)C(=O)N1C2CCCCC2C[C@H]1C(=O)N[C@@H](CCCNC(=N)N)C(=O)O` (stereo partly drawn) (HELM PEPTIDE1{S.K.[Dab].[O=C([C@@H]1CC2CCCCC2N1[*:1])[*:2]].R}|PEPTIDE2{[N=C(N)NCCCC[C@H](N)C(=O)[*:2]]}$PEPTIDE1,PEPTIDE2,2:R3-1:R2$$$V2.0) the IC50 (VEGA-NRP1) was 1.54 µM.
In the case of `CSC[C@H](N)C(=O)N[C@@H](CCCCNC(=O)[C@@H](N)CCCCNC(=N)N)C(=O)N[C@@H](CCN)C(=O)N1C2CCCCC2C[C@H]1C(=O)N[C@@H](CCCNC(=N)N)C(=O)O` (stereo partly drawn) (H-C(Me)K(hArg)[Dab][Oic(3aξ,7aξ)]R-OH), the IC50 (VEGA-NRP1) is reported as 2.48 µM.
`N=C(N)NCCCC[C@H](N)C(=O)NCCCC[C@H](NC(=O)[C@@H](N)CCS)C(=O)N[C@@H](CCN)C(=O)N1C2CCCCC2C[C@H]1C(=O)N[C@@H](CCCNC(=N)N)C(=O)O` (stereo partly drawn) (H-[hCys]K(hArg)[Dab][Oic(3aξ,7aξ)]R-OH) gave an IC50 (VEGA-NRP1) of 0.7 µM.
In the case of `N=C(N)NCCCC[C@H](NC(=O)[C@@H](N)CCS)C(=O)NCCCC[C@H](N)C(=O)N[C@@H](CCN)C(=O)N1C2CCCCC2C[C@H]1C(=O)N[C@@H](CCCNC(=N)N)C(=O)O` (stereo partly drawn) (H-K([hArg-hCys])[Dab][Oic(3aξ,7aξ)]R-OH), the IC50 (VEGA-NRP1) is reported as 0.63 µM.
Compound `N=C(N)NCCCC[C@H](NC(=O)[C@@H](N)CCCS)C(=O)NCCCC[C@H](N)C(=O)N[C@@H](CCN)C(=O)N1C2CCCCC2C[C@H]1C(=O)N[C@@H](CCCNC(=N)N)C(=O)O` (stereo partly drawn) (H-K([hArg-X2])[Dab][Oic(3aξ,7aξ)]R-OH) has an IC50 (VEGA-NRP1) of 1.33 µM.
With `N=C(N)NCCCC[C@H](NC(=O)CCCCCCCCCCNC(=O)CCCC[C@@H]1SC[C@@H]2NC(=O)N[C@@H]21)C(=O)NCCCC[C@H](NC(=O)[C@@H](N)CS)C(=O)N[C@@H](CCN)C(=O)N1C2CCCCC2C[C@H]1C(=O)N[C@@H](CCCNC(=N)N)C(=O)O` (stereo partly drawn) (H-CK([hArg-Aun-Biotin])[Dab][Oic(3aξ,7aξ)]R-OH) the Activity [2] was “Active”, the Activity [3] was “inactive” and the Activity (Cell membrane [4]) was “Active”. The Activity (MDA-MB-231 [5]) was “Active”, the Activity (MDA-MB-231 [6]) was “Active” and the Activity (MDA-MB-231 [7]) was “inactive”. The Activity (Cell membrane [8]) was “Active” and the Activity (Cell membrane [9]) was “Active”.
`N=C(N)NCCCC[C@H](N)C(=O)NCCCC[C@H](NC(=O)CCS)C(=O)N[C@@H](CCN)C(=O)N1C2CCCCC2C[C@H]1C(=O)N[C@@H](CCCNC(=N)N)C(=O)O` (stereo partly drawn) ([Mpa]K(hArg)[Dab][Oic(3aξ,7aξ)]R-OH) gave an IC50 (VEGA-NRP1) of 1.13 µM.
For `N=C(N)NCCCC[C@H](NC(=O)[C@@H](N)CS)C(=O)NCCCCC(NC(=O)CCCCCCCCCCNC(=O)CCCC[C@@H]1SC[C@@H]2NC(=O)N[C@@H]21)C(=O)N[C@@H](CCN)C(=O)N1C2CCCCC2C[C@H]1C(=O)N[C@@H](CCCNC(=N)N)C(=O)O` (stereo partly drawn) ({Biotin-Aun}-[ξK]([hArg-Cys])[Dab][Oic(3aξ,7aξ)]R-OH), the Activity [2] was “Active”, the Activity [3] was “inactive” and the Activity (Cell membrane [4]) was “Active”. The Activity (MDA-MB-231 [5]) was “Active”, the Activity (MDA-MB-231 [6]) was “Active” and the Activity (MDA-MB-231 [7]) was “inactive”. The Activity (Cell membrane [8]) was “Active” and the Activity (Cell membrane [9]) was “Active”.
For `N=C(N)NCCCC[C@H](NC(=O)CCS)C(=O)NCCCC[C@H](N)C(=O)N[C@@H](CCN)C(=O)N1C2CCCCC2C[C@H]1C(=O)N[C@@H](CCCNC(=N)N)C(=O)O` (stereo partly drawn) (H-K([hArg-Mpa])[Dab][Oic(3aξ,7aξ)]R-OH), the IC50 (VEGA-NRP1) was 2.17 µM.
Compound `N=C(N)NCCCC[C@H](NC(=O)[C@@H](N)CO)C(=O)NCCCC[C@H](N)C(=O)N[C@@H](CCN)C(=O)N1C2CCCCC2C[C@H]1C(=O)N[C@@H](CCCNC(=N)N)C(=O)O` (stereo partly drawn) (HELM PEPTIDE1{K.[Dab].[O=C([C@@H]1CC2CCCCC2N1[*:1])[*:2]].R}|PEPTIDE2{S.[N=C(N)NCCCC[C@H](N[*:1])C(=O)[*:2]]}$PEPTIDE1,PEPTIDE2,1:R3-2:R2$$$V2.0) has an IC50 (VEGA-NRP1) of 0.81 µM.
For H-CDKPRR-OH, the inhibition (VEGA-NRP1 (Homo sapiens)) was 96%.
